pIC50: −log10 of the molar value.
Experiments:
VDR = target: T1, VDR (Homo sapiens, UniProt P11473); test: VDR binding assay ([3H]-1,25(OH)2D3 displacement); details: human recombinant VDR; read-out: B50 (VDR binding, displacement of 50 percent [3H]-1,25(OH)2D3)
T1 construct: purchased Biomol
T1 sequence (P11473 1-427): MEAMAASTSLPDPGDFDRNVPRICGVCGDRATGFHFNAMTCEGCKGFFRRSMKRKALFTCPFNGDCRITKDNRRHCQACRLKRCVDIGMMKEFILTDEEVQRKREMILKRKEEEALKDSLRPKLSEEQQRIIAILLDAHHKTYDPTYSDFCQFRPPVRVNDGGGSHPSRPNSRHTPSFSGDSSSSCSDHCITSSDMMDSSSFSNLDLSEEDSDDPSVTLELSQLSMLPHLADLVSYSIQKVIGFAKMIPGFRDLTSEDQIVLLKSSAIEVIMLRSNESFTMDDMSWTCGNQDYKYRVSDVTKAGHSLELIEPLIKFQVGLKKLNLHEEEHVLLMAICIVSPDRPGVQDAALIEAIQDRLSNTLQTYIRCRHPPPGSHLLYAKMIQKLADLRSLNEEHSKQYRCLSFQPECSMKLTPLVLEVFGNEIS
Procedure: • 1. VDR 9.4 μmol/μl (human, recombinant, Biomol). • 2. [^3H]-1,25(OH)2D3 in ethanol • 3. 1,25(OH)2D3 in ethanol • 4. TEK300 • Tris-HCl 50 mM • EDTA 1.5 mM • KCl 300 mM • Adjusted pH to 7.4 (25° C.) • 5. TEDK300 • TEK300 • DTT (dithiothreitol) 10 mM (MW 154.24) • 6. Tris buffer • 22.50 g Tris-HCI • 500 ml H2O • 13.25 g Tris-base • 500 ml H2O • Kept in 4° C. • 7. Dextran-T70 (Mol 70,000) Pharmacia • 8. Charcoal (carbon decolorizing neutral, norit) Fisher Scientific • 9. Gelatin (G-2625 Sigma) (ii) Reagent Preparation: 1. Charcoal Dextran Solution
(1) Tris Buffer • Mixed equal amount of Tris-HCl and Tris-base.
(2) Norit decolorizing neutral charcoal 2.0 g • Tris buffer 150 mL • Stirred
(3) Dextran T-70 0.2 g • Tris buffer 50 ml.
(4) Slowly dripped the suspended dextran into charcoal solution with stirring. • Kept in refrigerator overnight. • Thirty minutes before use, stored on ice with continuous mixing. 2. […]
• Pipetted 100 μL of the upper, aqueous phase to a 24 well scintillation counting plate and added 600 μL scintillation fluid per well, covered and mixed well. Counted the plate using a scintillation counter for 5 min/sample. (iv) Calculations: • The amount of 1,25(OH)2D3 to displace 50 percent [^3H]-1,25(OH)2D3 from VDR was calculated as B50 for 1,25(OH)2D3. The VDR binding of other compounds was calculated as B50 relative to a value of 1 for 1,25(OH)2D3. • Serial Dilution of 1,25(OH)D3

OVCAR-3 cells = test: [3H]-Thymidine proliferation assay with OVCAR-3 cells; type: cell-based; details: ovarian cancer cells, 6 days, 3H-thymidine incorporation
Procedure: 1. Preparation of Suspension • When OVCAR-3 cells were ˜50% confluent, aspirated media. Washed cells with 1×PBS. Trypsinized with trypsin-EDTA, collected cells from the tissue culture flask, centrifuged (200×g, 5 min) and resuspended in media.
2. Cell Plating. • Counted the cells and adjusted the cell density to 11.4×10^3 to provide 2000 cells in 175 μl (for 1 well). Distributed cell suspension into a 96 well plates at 175 μl (2000 cells) per well. Incubated plate for 24 h at 37° C. in a humidified atmosphere plus 5% CO2. • Substrate addition. • Added 25 μl of compound (final concentration 10^−7 M, 5×10^−8 M 10^−8 M, 5×10^−9 M, 10^−9 M, 10^−10M or 0 M) into each designated well. Incubated plates for 6 days without changing media and drugs at 37° C. in a humidified atmosphere plus 5% CO2.
3. [^3H]-Thymidine incorporation • Added ^3H-thymidine at 0.02 μCi per well and incubated at 37° C. in a humidified atmosphere plus 5% CO2 for 6 h.
4. Plate Harvesting. • Aspirated all media and washed cells with 1×PBS. Trypsinized cells for 30 min at 37° C. in a humidified atmosphere plus 5% CO2. Harvested cells onto a 96 well filter plate (Millipore) using a Tomtec Cell Harvestor, according to manufacturers instructions.
5. Scintillation Counting. • Added 25 μl of scintillation fluid per well. Counted the plate using a scintillation counter. Results: Compounds (20R)-I(a), (20R)-I(c) and (20R)-I(e) all inhibited the proliferation of OVCAR-3 cells.

CYP27A1 = target: T2, CYP27A1 (Homo sapiens, UniProt Q02318); test: CYP27A1 enzyme assay; type: biochemical; details: read-out: IC50 in the inhibition of CYP27A1
T2 sequence (Q02318 34-531): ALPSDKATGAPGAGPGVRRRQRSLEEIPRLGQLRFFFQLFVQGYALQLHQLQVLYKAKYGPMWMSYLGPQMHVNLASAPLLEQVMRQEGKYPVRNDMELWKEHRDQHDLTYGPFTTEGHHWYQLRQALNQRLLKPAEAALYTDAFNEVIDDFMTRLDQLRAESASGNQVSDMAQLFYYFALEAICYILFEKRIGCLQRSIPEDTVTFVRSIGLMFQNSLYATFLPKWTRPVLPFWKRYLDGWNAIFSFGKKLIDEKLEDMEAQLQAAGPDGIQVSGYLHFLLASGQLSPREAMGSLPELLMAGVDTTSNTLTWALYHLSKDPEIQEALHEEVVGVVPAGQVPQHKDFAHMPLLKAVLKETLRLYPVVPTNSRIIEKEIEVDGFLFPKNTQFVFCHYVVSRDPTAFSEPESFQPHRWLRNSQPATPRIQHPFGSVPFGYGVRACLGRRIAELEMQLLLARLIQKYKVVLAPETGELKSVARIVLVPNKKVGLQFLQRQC

pIC50 (VDR): 7.22 | pIC50 (CYP27A1): < 6.00
Structure (SMILES): C=C1/C(=C\C=C2/CCC[C@]3(C)C([C@H](C)C/C=C/C(=NOC)C(C)(C)C)=CC[C@@H]23)C[C@@H](O)C[C@@H]1O [(20R)-I(e)]
Inhibition of OVCAR-3 cell proliferation (OVCAR-3 cells): inhibited

Source: patent publication US8906888B2, “Low-calcemic 16,23-diene 25-oxime analogs of 1α,25-dihydroxy vitamin D3” (Cytochroma Inc., priority 2005, dated 2014)
